In patent US20130261108A1, “COMPOSITIONS AND METHODS FOR MODULATING FARNESOID X RECEPTORS” (IRM LLC, priority 2010, published 2013) one finds EC50 data, which are given here for 21 compounds.

For this assay, the target named is T1, human Farnesoid X Receptor (FXR) ligand binding domain (Homo sapiens, UniProt Q96RI1).
T1 construct: purchased Invitrogen
T1 sequence (Q96RI1 193-472 isoform Q96RI1-2): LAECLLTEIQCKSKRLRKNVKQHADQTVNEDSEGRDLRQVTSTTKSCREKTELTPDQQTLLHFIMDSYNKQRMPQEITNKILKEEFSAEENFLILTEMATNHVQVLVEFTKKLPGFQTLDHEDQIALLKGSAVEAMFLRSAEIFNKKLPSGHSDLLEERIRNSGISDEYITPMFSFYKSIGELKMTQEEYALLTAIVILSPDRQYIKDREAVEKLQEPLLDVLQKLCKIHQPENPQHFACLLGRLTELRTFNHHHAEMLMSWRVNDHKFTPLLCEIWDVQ
The experiment in a line: Human GST-FXR LBD co-activator interaction assay (FXR HTRF assay). To be noted: GST-FXR LBD with biotin-labeled SRC-1 peptide, FRET/HTRF, 2.5 hours at room temperature; response relative to GW4064; read-out: FXR coactivator interaction assay (HTRF) (EC50). Format: biochemical. The source says:
Human GST-FXR LBD Co-Activator Interaction Assay.
The FXR HTRF assay is a biochemical assay measuring the interaction between FXR and a coactivator protein (SRC1). The ligand-induced interaction with a coactivator protein is a critical step in transcriptional activation by FXR. Thus, this is an assay designed to measure FXR agonist activity of compounds.
The ligand-dependent interaction between GST-FXR LBD and a peptide derived from Steroid Receptor Coactivator-1 (SRC-1) was monitored by Fluorescence Resonance Energy Transfer (FRET). […] Test compounds (in DMSO solution) and detection reagents (anti-GST-Cryptate labeled antibody and Streptavidin-XL665 conjugate; CisBio) were added in assay buffer containing 50 mM KF. Plates are incubated at room temperature in the dark for 2.5 hours before reading on an Envision (PerkinElmer) at 665 nm and 590 nm.
A negative control (without Streptavidin-XL665) was run with each assay and represented the background fluorescence. A reference FXR agonist, GW4064, was included in each experiment as positive control. The efficacy of each test compound was compared to that of GW4064. At each concentration, the relative activity of the test compound was expressed as Response %=(Rsample−RDMSO)/(Rpositive−RDMSO), where Rsample is the HTRF response (expressed in Delta F %) for the test compound, Rpositive is the maximal response for GW4064 at saturating concentrations, and RDMSO is the response for DMSO control. The EC50 values were calculated using GraphPad Prism (GraphPad Software) using non-linear regression curve fit (log(agonist) vs. response−variable slope (four parameters)).
In the case of `CC1(c2onc(-c3ccccc3OC(F)(F)F)c2COC2CCN(c3nc4ccc(C(=O)O)cc4s3)CC2)CC1` [Example 2-2B, 2-(4-{[5-(1-methylcyclopropyl)-3-[2-(trifluoromethoxy)phenyl]-1,2-oxazol-4-yl]methoxy}piperidin-1-yl)-1,3-benzothiazole-6-carboxylic acid], the EC50 (commonly the concentration that produces a half-maximal response) was found to be 0.098 µM. Next, `O=C(O)c1ccc2nc(N3CCC(OCc4c(-c5ccccc5C(F)(F)F)noc4C4CC4)CC3)sc2c1` [Example 2-5B, 2-[4-({5-cyclopropyl-3-[2-(trifluoromethyl)phenyl]-1,2-oxazol-4-yl}methoxy)piperidin-1-yl]-1,3-benzothiazole-6-carboxylic acid]: 0.086 µM; `O=C(NCCS(=O)(=O)O)c1ccc2nc(N3CCC(OCc4c(-c5ccccc5OC(F)(F)F)noc4C4CC4)CC3)sc2c1` [Example 9, 2-(2-(4-((5-cyclopropyl-3-(2-(trifluoromethoxy)phenyl)isoxazol-4-yl)methoxy)piperidin-1-yl)benzo[d]thiazole-6-carboxamido)ethanesulfonic acid]: 0.087 µM. Next, `CCOC(=O)c1ccc2nc(N3CCCC(OCc4c(-c5ccccc5C(F)(F)F)noc4C4CC4)CC3)sc2c1` (stereo not drawn) [Example 3-2A, ethyl 2-[4-({5-cyclopropyl-3-[2-(trifluoromethyl)phenyl]-1,2-oxazol-4-yl}methoxy)azepan-1-yl]-1,3-benzothiazole-6-carboxylate]: 0.416 µM.

For `NC(=O)c1ccc2nc(N3CCC(OCc4c(-c5ccccc5OC(F)(F)F)noc4C4CC4)CC3)sc2c1` [Example 7-2, 2-[4-({5-cyclopropyl-3-[2-(trifluoromethoxy)phenyl]-1,2-oxazol-4-yl}methoxy)piperidin-1-yl]-1,3-benzothiazole-6-carboxamide], the EC50 came to 0.164 µM.

In the case of `O=C(O)c1ccc2nc(N3CCC(OCc4c(C5CCCCC5C(F)(F)F)noc4C4CC4)CC3)sc2c1` (single isomer, unassigned) [5 (Diastereomer B)], the EC50 worked out at 0.064 µM. In the case of `NC(=O)c1ccc2nc(N3CCC(OCc4c(-c5c(Cl)cccc5Cl)noc4C4CC4)CC3)sc2c1` [Example 6-2, 2-(4-((5-cyclopropyl-3-(2,6-dichlorophenyl)isoxazol-4-yl)methoxy)piperidin-1-yl)benzo[d]thiazole-6-carboxamide], the EC50 turned out to be 0.019 µM.

For `O=C(O)c1ccc2nc(N3CCC(OCc4c(-c5c(Cl)cccc5C(F)(F)F)noc4C4CC4)CC3)sc2c1` [Example 2-6B, 2-[4-({3-[2-chloro-6-(trifluoromethyl)phenyl]-5-cyclopropyl-1,2-oxazol-4-yl}methoxy)piperidin-1-yl]-1,3-benzothiazole-6-carboxylic acid], the EC50 amounted to 0.198 µM.

Turning to `O=C(O)c1ccc2nc(N3CCC(OCc4c(-c5ccccc5OC(F)F)noc4C4CC4)CC3)sc2c1` [Example 2-8B, 2-[4-({5-cyclopropyl-3-[2-(difluoromethoxy)phenyl]-1,2-oxazol-4-yl}methoxy)piperidin-1-yl]-1,3-benzothiazole-6-carboxylic acid], the half-maximal effective concentration (EC50) is 0.045 µM.

For `COc1cccc(C(F)(F)F)c1-c1noc(C2CC2)c1COC1CCN(c2nc3ccc(C(=O)O)cc3s2)CC1` [Example 2-7B, 2-[4-({5-cyclopropyl-3-[2-methoxy-6-(trifluoromethyl)phenyl]-1,2-oxazol-4-yl}methoxy)piperidin-1-yl]-1,3-benzothiazole-6-carboxylic acid], the EC50 was 0.075 µM. Under `O=C(O)c1ccc2nc(N3CCC(OCc4c(-c5c(F)cccc5Cl)noc4C4CC4)CC3)sc2c1` [Example 2-12B, 2-(4-{[3-(2-chloro-6-fluorophenyl)-5-cyclopropyl-1,2-oxazol-4-yl]methoxy}piperidin-1-yl)-1,3-benzothiazole-6-carboxylic acid] stands 0.057 µM; under `O=C(O)c1cc(F)c2nc(N3CCC(OCc4c(-c5ccccc5OC(F)(F)F)noc4C4CC4)CC3)sc2c1` [Example 1-3, 2-(4-((5-cyclopropyl-3-(2-(trifluoromethoxy)phenyl)isoxazol-4-yl)methoxy)piperidin-1-yl)-4-fluorobenzo[d]thiazole-6-carboxylic acid], 0.017 µM; under `CCOC(=O)c1ccc2nc(N3CCC(OCc4c(-c5ccccc5OC(F)F)noc4C4CC4)CC3)sc2c1` [Example 2-8A, ethyl 2-[4-({5-cyclopropyl-3-[2-(difluoromethoxy)phenyl]-1,2-oxazol-4-yl}methoxy)piperidin-1-yl]-1,3-benzothiazole-6-carboxylate], 2.42 µM. Next, `CCOC(=O)c1ccc2nc(N3CCC(OCc4c(-c5c(Cl)cccc5Cl)noc4C(C)C)CC3)sc2c1` [Example 4A, Ethyl 2-(4-((3-(2,6-dichlorophenyl)-5-isopropylisoxazol-4-yl)methoxy)piperidin-1-yl)benzo[d]thiazole-6-carboxylate]: 0.96 µM; `O=C(O)c1ccc2sc(N3CCC(OCc4c(-c5ccccc5OC(F)(F)F)noc4C4CC4)CC3)nc2c1` [Example 2-1, 2-[4-({5-cyclopropyl-3-[2-(trifluoromethoxy)phenyl]-1,2-oxazol-4-yl}methoxy)piperidin-1-yl]1,3-benzothiazole-5-carboxylic acid]: 0.062 µM.

With `O=C(O)c1cc(OC(F)(F)F)c2nc(N3CCC(OCc4c(-c5ccccc5OC(F)(F)F)noc4C4CC4)CC3)sc2c1` [Example 2-4, 2-[4-({5-cyclopropyl-3-[2-(trifluoromethoxy)phenyl]-1,2-oxazol-4-yl}methoxy)piperidin-1-yl]-4-(trifluoromethoxy)-1,3-benzothiazole-6-carboxylic acid], the EC50 was 0.005 µM. Next, `N#Cc1ccc2nc(N3CCC(OCc4c(-c5ccccc5OC(F)(F)F)noc4C4CC4)CC3)sc2c1` [Example 7-1, 2-[4-({5-cyclopropyl-3-[2-(trifluoromethoxy)phenyl]-1,2-oxazol-4-yl}methoxy)piperidin-1-yl]-1,3-benzothiazole-6-carbonitrile]: 2.2 µM.

For the compound `O=C(O)c1cc(F)c2nc(N3CCC(OCc4c(-c5ccccc5OC(F)F)noc4C4CC4)CC3)sc2c1` [Example 2-10, 2-[4-({5-cyclopropyl-3-[2-(difluoromethoxy)phenyl]-1,2-oxazol-4-yl}methoxy)piperidin-1-yl]-4-fluoro-1,3-benzothiazole-6-carboxylic acid], the EC50 is 0.021 µM. Under `O=C(O)c1ccc2nc(N3CCC(OCc4c(COc5c(Cl)cccc5Cl)noc4C4CC4)CC3)sc2c1` [Example 10-1, 2-(4-{[5-cyclopropyl-3-(2,6-dichlorophenoxymethyl)-1,2-oxazol-4-yl]methoxy}piperidin-1-yl)-1,3-benzothiazole-6-carboxylic acid] stands 0.089 µM; under `O=C(O)c1ccc2nc(N3CCCC(OCc4c(-c5ccccc5OC(F)(F)F)noc4C4CC4)CC3)sc2c1` (stereo not drawn) [Example 3-1B, 2-[4-({5-cyclopropyl-3-[2-(trifluoromethoxy)phenyl]-1,2-oxazol-4-yl}methoxy)azepan-1-yl]-1,3-benzothiazole-6-carboxylic acid], 0.007 µM. Under `CCOC(=O)c1ccc2nc(N3CCC(OCc4c(-c5ccccc5OC(F)(F)F)noc4C4(C)CC4)CC3)sc2c1` [Example 2-2A, ethyl 2-(4-{[5-(1-methylcyclopropyl)-3-[2-(trifluoromethoxy)phenyl]-1,2-oxazol-4-yl]methoxy}piperidin-1-yl)-1,3-benzothiazole-6-carboxylate] stands 1.18 µM.
